Here are results for three compounds from patent publication US12109222B2, “Methods and compositions for treating mucositis” (Tosk, Inc., priority 2018, dated 2024).

For data set [1] the following is noted: patients who receive 5-FU for their disease; cited from earlier work.
The subject of data set [2] is plasma citrulline. The data set is described as follows: Plasma citrulline after 5-FU (LC/MS/MS-Isotope assay), surrogate marker for mucositis. Type of data set: in vivo, C57BL/6 female mice. As to conditions: Day 3. The protocol: The chemotherapeutic challenge was diminished plasma citrulline by 5-FU treatment. The aim of this study was to explore whether a uridine phosphorylase inhibitor could prevent lowered plasma citrulline induced by 5-FU.
TK-90 solution was prepared at a concentration of 500 mg/mL in sterile PBS. Eight animals were used for Groups 1,2 and 3.
Osmotic pumps were placed inside the subcutaneous tunnel. Incision was sealed with Vetbond tissue adhesive and wound clips.
Blood collections were done to animals anesthetized with ketamine (ip 100 mg/kg). Whole blood (˜0.8 mL) was drawn through the retro-orbital sinus using a heparin coated micro-hematocrit tube and collected into a heparin microtainer tube. Blood samples were transferred into fresh 1.5 mL microcentrifuge tubes and centrifuged for 5 minutes at 10,000×g using an Eppendorf Minispin Plus stored in a 4° C. refrigerator. Following collection of the plasma samples, the animals were sacrificed on Day 3 by cervical dislocation and properly disposed. […]
Thawed plasma samples from the study were analyzed for citrulline using a published LC/MS/MS-Isotope assay. (Jones et al., Development and validation of a LC-MS/MS assay for quantitation of plasma citrulline for application to animal models of the acute radiation syndrome across multiple species,” Anal Bioanal Chem. (2014) 406(19):4663-75).

For data set [3], the system named is 5-FU induced weight loss. The data set is described as follows: Protection from 5-FU induced weight loss by uridine alone or uridine plus TK-90. The format is in vivo, CD-1 mice. The text has this:
Weight loss is one of the cardinal features of mucositis. […] Controls include PBS alone at times mimicking the time for 5-FU and combined uridine and TK-90 treatments. There were n=6 animals in all groups.

Data set [4] relates to uridine. In words: Systemic uridine after administration of TK-90. Type of data set: in vivo.
The subject of data set [5] is weight loss induced by 5-FU. To be noted: 400 mg/kg 5-FU ip Day 0 plus 5333 mg/kg sc TK-90 by osmotic pump over 24 hours; compared to 5-FU alone.
Protocol: The chemotherapeutic challenge was weight loss induced by 5-FU (FIG. 2). […] The aim of this study was to explore whether 5-FU combined with a uridine phosphorylase inhibitor provides protection from weight loss, a principal toxicity of 5-FU.
Groups of CD-1 female mice entrained to light:dark (12:12 hours), and given food and water ad libitum, were used for this experiment. The mean weight of the mice at the start of the experiment was approximately 20 g. Control mice were injected ip with sterile PBS, the vehicle control (Group 1). Group 2 and Group 3 mice were injected, ip, with 400 mg/kg 5-FU (Sigma) dissolved in PBS. A 24-hour osmotic pump (ALZET® micro-osmotic pump, Alza Co) was implanted into Group 3 animals. The pumps were loaded with 200 μL (2001D osmotic pump) of a 500 mg/mL solution of TK-90 (FIG. 2) in PBS. The TK-90 dose over the 24-hour infusion was 5333 mg/kg. The four animals were used for Group 1 and 8 animals were used for Groups 2 and 3.
For the implantation of the osmotic pump, animals were anesthetized with 100 mg/kg ketamine prior to pump implantation. […]
Animals were sacrificed on Day 5 by cervical dislocation and properly disposed. Animal weights were recorded daily for 6 days and the percent difference between Day 0 and Day 5 at termination was calculated.
Data set [6] relates to panel of cytokines and related biochemicals. The data set is described as follows: Plasma cytokine changes induced by 5-FU, multiplex ELISA on plasma of Experiment III. Type of data set: in vivo, C57BL/6 female mice. To be noted: Day 3; 200 mg/kg 5-FU ip plus 6000 mg/kg TK-90 osmotic pump over 24 hours; vs 5-FU alone. The protocol:
The chemotherapeutic challenge was cytokine changes induced by 5-FU treatment.
Plasma samples from Experiment III were analyzed for a panel of cytokines and related biochemicals by multiplex ELISA. […] IL-1B, TNF-α, and IL-6 are pro-inflammatory cytokines known to be elevated with mucositis. (Logan et al., “The role of pro-inflammatory cytokines in cancer treatment-induced alimentary tract mucositis: pathobiology, animal models and cytotoxic drugs,” Cancer Treat Rev. (2007) 33(5):448-60; Ong et al., “Pro-inflammatory cytokines play a key role in the development of radiotherapy-induced gastrointestinal mucositis,” Radiat Oncol. (2010) (16) 5:22). TK-90 reverses elevation of all three of these cytokines (FIGS. 5, 6 and 7). IL-2 is a pleiotropic cytokine that drives growth and activation of inflammatory cells such as T-cells, NK cells, etc. IL-9 and IL-15 signal through IL-2. TK-90 reverse the 5-FU induced elevation of all three of these cytokines (FIGS. 8, 9, and 10). IL-12 is a cytokine linked to generation of an immune response. Another cytokine associated with generation of an immune response is IL-5. TK-90 reverse the 5-FU induced elevation of IL-12 and IL5 (FIGS. 11, 12 and 13). IL-10 is a cytokine that plays a central role in limiting host immune response. TK-90 reverses the elevation of IL-10 induced by the 5-FU treatment possibly allowing an immune response to proceed to potentially clear damaged tissue (FIG. 14). GM-CSF and M-CSF both stimulate cell mediators of inflammation. TK-90 reverse the 5-FU induced elevation of both GM-CSF and […] (FIGS. 15 and 16). MIP-2, and KC are chemokines that function much like GM-CSF, and M-CSF to stimulate cell mediators of inflammation TK-90 reverse the 5-FU induced elevation of the chemokines (FIGS. 17 and 18). 5-FU decreases eotaxin, a chemokine that recruits immune-related mediators like eosinophils into inflammatory sites (FIG. 19). TK-90 reverses this decrease.
In general terms: An ELISA detects its analyte on a solid surface through an enzyme-linked reagent.

Data set [7] is described as follows: Side effects of TK-90 (clinical trials). As to conditions: in vivo.
The conditions of data set [8]: cited from earlier work.
The conditions of data set [9]: man and animals; cited from earlier work.

“Also recorded” adds a separate entry of the source.

`O=c1[nH]cc(F)c(=O)[nH]1` [Compound 5-FU, 5-flurouracil]: in data set [1], the “patients who develop mucositis” value is recorded as “Approximately 80%”. Further, the plasma citrulline concentration result in data set [2] (200 mg/kg 5-FU ip alone, compared to PBS vehicle control) was “significant reduction in citrulline”. In data set [3] (80 mg/kg 5-FU qdx5 ip alone, compared to PBS vehicle control), the “percent change in weight Day 5 versus Day 0” value (shortened to “percent change”) is “robust weight loss”.

As to `Cc1cn2c(nc1=O)O[C@H]1[C@H](O)[C@@H](CO)O[C@H]12` [TK-90], the plasma citrulline concentration result in data set [2] (200 mg/kg 5-FU ip plus 6000 mg/kg TK-90 by osmotic pump over 24 hours starting 4 hours post 5-FU, compared to 5-FU alone) was “reverses the decrease in plasma citrulline; also recorded: robust, statistically significant rebound in plasma citrulline”. In addition, the systemic uridine result in data set [4] was “increases systemic uridine”. The “percent change” value in [3] (80 mg/kg 5-FU qdx5 ip with 750 mg/kg uridine and 120 mg/kg TK-90 bid, compared to 5-FU alone) is “protected from the weight loss”. The “percent weight change on Day 5 versus Day 0” value in data set [5] is given as “protected from the weight loss”. In addition, in data set [6], the “plasma GM-CSF” value is on record as “highly significantly different; also recorded: reverses the increase in plasma GM-CSF”, the “plasma IL-1β” value is “reverses the increase in plasma IL-1β”, the “plasma IL-2” value is given as “reverses the increase in plasma IL-2” and the “plasma IL-6” value is given as “reverses the increase in plasma IL-6”. Besides, in [6], the “plasma IL-9” value is “highly significantly different; also recorded: reverses the increase in plasma IL-9”, the “plasma IL-10” value is recorded as “highly significantly different; also recorded: reverses the increase in plasma IL-10”, the “plasma IL-12 (P40)” value is on record as “highly significantly different; also recorded: reverses the increase in plasma IL-12 (P40)” and the “plasma IL-12 (P70)” value is listed as “highly significantly different; also recorded: reverses the increase in plasma IL-12 (P70)”. Also, in data set [6], the “plasma IL-15” value was “highly significantly different; also recorded: reverses the increase in plasma IL-15”, the “plasma KC (keratinocytes-derived chemokine)” value is “significantly different; also recorded: reverses the increase in plasma KC”, the “plasma M-CSF” value is reported as “reverses the increase in plasma M-CSF” and the “plasma MIP-2” value was “reverses the increase in plasma MIP-2”. Further, in data set [6], the “plasma TNF-α” value is reported as “reverses the increase in plasma TNF-α” and the plasma eotaxin result is recorded as “reverses the decrease in plasma eotaxin”. Besides, in data set [7], the side effects entry is on record as “no known side effects”.

Turning to `O=c1ccn([C@@H]2O[C@H](CO)[C@@H](O)[C@H]2O)c(=O)[nH]1` [uridine], in [3] (80 mg/kg 5-FU qdx5 ip with 750 mg/kg uridine bid, compared to 5-FU alone), the “percent change” value is listed as “statistically significant but much less”. The “toxicity of continuous infusions of high-dose uridine” value in data set [8] (continuous infusion) is “high fever, cellulitis, and superior vena cava syndrome”. For the same compound, the “toxicity of orally administered uridine” value in data set [8] (oral, high-dose, clinical studies) was “considerable GI dysfunction; also recorded: severe patient diarrhea, phlebitis and pyrogenic reactions”. For the same compound, the “half-life of administered uridine” value in [9] is approximately 3 min.
